For 1 molecule, Kd results are on record in PMC10675646 (Viruses, 2023).

The assay addresses T1, 6xHis-SUMO-TRAF2 (residues 315–501) TRAF-C domain (Homo sapiens, UniProt Q12933).
T1 sequence (Q12933 315-501): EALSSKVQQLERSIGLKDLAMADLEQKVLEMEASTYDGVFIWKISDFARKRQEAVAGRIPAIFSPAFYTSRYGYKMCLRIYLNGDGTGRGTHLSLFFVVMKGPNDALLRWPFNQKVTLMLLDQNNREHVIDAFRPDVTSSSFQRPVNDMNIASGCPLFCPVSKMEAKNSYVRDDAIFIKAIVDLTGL
The assay is described as follows: Fluorescence polarization (FP) binding assay, TRAF2 TRAF-C domain. To be noted: summary range stated for TRAF2 and TRAF3 TRAF-C together, read-out: Binding affinities between the PIQAS peptide and SUMO-TRAF-C proteins (range). In general terms: In fluorescence polarisation assays a small probe gives low polarisation when free and higher when bound to something large.

Molecules are shown by their SMILES. Where a SMILES comes first, the peptide text is derived from it. The star is where a group is joined. 5FAM = O=C1OC2(c3ccc(O)cc3Oc3cc(O)ccc32)c2ccc(C(=O)*)cc21; Ahx = NCCCCCC(=O)O

On to `CC[C@H](C)[C@H](NC(=O)[C@@H]1CCCN1C(=O)CCCCCNC(=O)c1ccc2c(c1)C(=O)OC21c2ccc(O)cc2Oc2cc(O)ccc21)C(=O)N[C@@H](CCC(N)=O)C(=O)N[C@@H](C)C(=O)N[C@@H](CO)C(N)=O` [PIQAS peptide] ({5FAM-Ahx}-PIQAS-NH2), for which the Kd fell in the range of 150 to 200 µM.
